Measurements as given in ChEMBL document CHEMBL5584251, “Design and synthesis of novel and potent allosteric HIV-1 integrase inhibitors with a spirocyclic moiety” (Bioorg Med Chem Lett, 2024).

Tests used:
[1] = molecular target: Human immunodeficiency virus type 1 integrase (Human immunodeficiency virus 1, UniProt Q7ZJM1); assay: Allosteric inhibition of HIV-1 integrase by ELISA based IN-DNA assembly/Strand transfer assay
[2] = Permeability of the compound in human Caco-2 cells; format: ADME, cell-based; settings: read-out: permeability
[3] = Metabolic stability in human liver microsome; format: ADME; settings: microsomes; note: time not given here
[4] = Metabolic stability in rat liver microsome; format: ADME; settings: microsomes; note: time not given here
[5] = test system: Human immunodeficiency virus 1; assay: Antiviral activity against HIV-1 T125A infected in human MT4 cells assessed as reduction in viral replication; format: functional, organism-based; settings: Human immunodeficiency virus 1, T125A
[6] = test system: Human immunodeficiency virus 1; assay: Antiviral activity against wild type HIV-1 NL4-3 infected in human MT4 cells assessed as reduction in viral replication; format: functional, organism-based; settings: Human immunodeficiency virus 1, NL4-3, MT4
[7] = Volume of distribution at steady state in rat at 0.3 mg/kg, iv; format: ADME, organism-based; settings: in vivo, read-out: Vdss
[8] = Clearance in rat at 0.3 mg/kg, iv; format: ADME, organism-based; settings: in vivo
[9] = MRT in rat at 0.3 mg/kg, iv; format: ADME, organism-based; settings: in vivo
[10] = Half life in rat at 0.3 mg/kg, iv; format: ADME, organism-based; settings: in vivo
[11] = Oral bioavailability in rat at 3 mg/kg; format: ADME, organism-based; settings: in vivo

Human immunodeficiency virus type 1 integrase, sequence (Q7ZJM1 whole entry): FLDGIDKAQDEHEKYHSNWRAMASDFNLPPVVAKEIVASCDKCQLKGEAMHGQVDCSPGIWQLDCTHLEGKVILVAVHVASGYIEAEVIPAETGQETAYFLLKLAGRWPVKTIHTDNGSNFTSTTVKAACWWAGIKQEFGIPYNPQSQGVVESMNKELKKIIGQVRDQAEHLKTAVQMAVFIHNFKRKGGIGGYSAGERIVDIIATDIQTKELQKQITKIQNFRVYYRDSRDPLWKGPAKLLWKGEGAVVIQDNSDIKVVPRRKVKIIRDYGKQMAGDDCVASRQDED

Structure (SMILES) | IC50 [1] [nM] | Papp [2] [×10⁻⁶ cm/s] | Stability [3] [%] | Stability [4] [%] | EC50 [5] [nM] | EC50 [6] [nM] | Vd [7] [L/kg] | clearance [8] [mL/min/kg] | MRT [9] [h] | half-life [10] [h] | bioavailability [11] [%]
Cc1ccc(-c2c([C@H](OC(C)(C)C)C(=O)O)c(C)nc3ccccc23)cc1C | 12 | – | – | – | – | – | – | – | – | – | –
Cc1cc(C(=O)N(C)C)c2c(c1C(OC(C)(C)C)C(=O)O)[C@]1(CC2)CC[C@@H](C)CC1 (some centres undefined) | 1800 | 7 | 97 | 94 | > 6000 | 2600 | – | – | – | – | –
CNC(=O)c1cc(C)c(C(OC(C)(C)C)C(=O)O)c2c1CC[C@]21CC[C@@H](C)CC1 (some centres undefined) | 160 | 8 | 100 | 98 | 9900 | 560 | – | – | – | – | –
Cc1ccc2c(c1C(OC(C)(C)C)C(=O)O)[C@]1(CCC2)CC[C@@H](C)CC1 (mixture of isomers) | 50 | – | – | – | – | 4000 | – | – | – | – | –
Cc1ccc2c(c1C(OC(C)(C)C)C(=O)O)[C@]1(CC[C@H](C)CC1)CC2O (some centres undefined) | 430 | – | – | – | – | 15000 | – | – | – | – | –
Cc1cc(C(=O)NC2CCCCC2)c2c(c1C(OC(C)(C)C)C(=O)O)[C@]1(CC2)CC[C@@H](C)CC1 (some centres undefined) | 2 | 24 | 94 | 99 | 130 | 21 | – | – | – | – | –
Cc1cc(C(=O)NC2CCCCC2)c2c(c1[C@H](OC(C)(C)C)C(=O)O)[C@]1(CC2)CC[C@@H](C)CC1 | 1.4 | 20 | 91 | 100 | 120 | 7.4 | 0.57 | 2.67 | 3.6 | 4.2 | 64
Cc1cn([C@H]2C[C@H](N=[N+]=[N-])[C@@H](CO)O2)c(=O)[nH]c1=O [ZIDOVUDINE] | – | – | – | – | 38.9 | 29.9 | – | – | – | – | –
Cc1cc(C(=O)NCC(C)C)c2c(c1C(OC(C)(C)C)C(=O)O)[C@]1(CC2)CC[C@@H](C)CC1 (some centres undefined) | 5.7 | 15 | – | – | 3300 | 33 | – | – | – | – | –
Cc1ccc2c(c1C(OC(C)(C)C)C(=O)O)[C@]1(CC2)CC[C@@H](C)CC1 (mixture of isomers) | 54 | 48 | 57 | 51 | > 6000 | 5300 | – | – | – | – | –
Cc1cc(NC(=O)CC(C)C)c2c(c1C(OC(C)(C)C)C(=O)O)[C@]1(CC2)CC[C@@H](C)CC1 (some centres undefined) | 2.2 | 29 | 72 | 97 | 940 | 30 | – | – | – | – | –
Cc1ccc2c(c1C(OC(C)(C)C)C(=O)O)[C@]1(CC[C@H](C)CC1)CC2=O (some centres undefined) | 490 | – | – | – | – | 3200 | – | – | – | – | –
Cc1cc(C(=O)NC2CCCCC2)c2c(c1[C@@H](OC(C)(C)C)C(=O)O)[C@]1(CC2)CC[C@@H](C)CC1 | 8.3 | 20 | 92 | 100 | 1200 | 110 | – | – | – | – | –
Cc1cc(C(=O)NC(C)C)c2c(c1C(OC(C)(C)C)C(=O)O)[C@]1(CC2)CC[C@@H](C)CC1 (some centres undefined) | 20 | 13 | 99 | 96 | 2700 | 110 | – | – | – | – | –
Cc1cc(C(=O)NC2CCCCCC2)c2c(c1C(OC(C)(C)C)C(=O)O)[C@]1(CC2)CC[C@@H](C)CC1 (some centres undefined) | 1.8 | 30 | 83 | 87 | 580 | 21 | – | – | – | – | –
COC1C[C@]2(CC[C@@H](C)CC2)c2c1ccc(C)c2C(OC(C)(C)C)C(=O)O (some centres undefined) | 53 | – | – | – | – | 2300 | – | – | – | – | –
